The target of the assay is PPARδ ligand-binding domain (LBD) (Homo sapiens (Human), UniProt Q03181). The experiment in a line: PPARδ activation, TR-FRET coactivator peptide recruitment (enzyme activity EC50). In kind it is biochemical. The note with it: GST-PPARδ LBD 5 nM, read-out: Enzymatic activity (EC50).
PPARδ ligand-binding domain (LBD), sequence (Q03181 211-439): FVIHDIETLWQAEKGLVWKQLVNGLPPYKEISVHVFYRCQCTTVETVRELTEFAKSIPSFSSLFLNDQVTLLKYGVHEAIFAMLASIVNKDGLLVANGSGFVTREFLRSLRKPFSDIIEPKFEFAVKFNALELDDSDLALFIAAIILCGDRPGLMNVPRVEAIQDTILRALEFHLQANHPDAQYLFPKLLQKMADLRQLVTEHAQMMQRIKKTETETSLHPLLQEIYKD
In the case of `Cc1cc(SCc2nnc(-c3ccc(F)c(Cl)c3)s2)ccc1OCC(=O)O` [Example 16, 2-(4-(((5-(3-chloro-4-fluorophenyl)-1,3,4-thiadiazol-2-yl)methyl)thio)-2-methylphenoxy)acetic acid], the EC50 was determined as 1350 nM.
The figure for `Cc1cc(SCc2nnc(-c3ccc(C(F)(F)F)cc3)s2)ccc1OC(C)C(=O)O` (centres unmarked) [Example 2, 2-(2-methyl-4-(((5-(4-(trifluoromethyl)phenyl)-1,3,4-thiadiazol-2-yl)methyl)thio)phenoxy)propanoic acid] is 420 nM.
The figure for `Cc1ccc(-c2nnc(CSc3ccc(OC(C)C(=O)O)c(C)c3)s2)cc1` (centres unmarked) [Example 23, 2-(2-methyl-4-(((5-(p-tolyl)-1,3,4-thiadiazol-2-yl)methyl)thio)phenoxy)propanoic acid] is 5700 nM; for `Cc1cc(SCc2nnc(-c3ccc(F)c(F)c3)s2)ccc1OCC(=O)O` [Example 12, 2-(4-(((5-(3,4-difluorophenyl)-1,3,4-thiadiazol-2-yl)methyl)thio)-2-methylphenoxy)acetic acid] it is 663 nM.
The figure for `Cc1cc(SCc2nnc(-c3ccc(OC(F)(F)F)cc3)s2)ccc1OC(C)C(=O)O` (centres unmarked) [Example 26, 2-(2-methyl-4-(((5-(4-(trifluoromethoxy)phenyl)-1,3,4-thiadiazol-2-yl)methyl)thio)phenoxy)propanoic acid] is 1240 nM; for `Cc1ccc(-c2nnc(CSc3ccc(OC(C)(C)C(=O)O)c(C)c3)s2)cc1` [Example 24, 2-methyl-2-(2-methyl-4-(((5-(p-tolyl)-1,3,4-thiadiazol-2-yl)methyl)thio)phenoxy)propanoic acid] it is 1250 nM; for `Cc1cc(SCc2nnc(-c3ccc(C(F)(F)F)cc3)s2)ccc1OCC(=O)NC#N` [Example 8, N-cyano-2-(2-methyl-4-(((5-(4-(trifluoromethyl)phenyl)-1,3,4-thiadiazol-2-yl)methyl)thio)phenoxy)acetamide] it is 504 nM.
As for `Cc1cc(SCc2nnc(-c3ccc(C(F)(F)F)c(F)c3)s2)ccc1OC(C)(C)C(=O)O` [Example 21, 2-(4-(((5-(3-fluoro-4-(trifluoromethyl)phenyl)-1,3,4-thiadiazol-2-yl)methyl)thio)-2-methylphenoxy)-2-methylpropanoic acid], the EC50 was found to be 2660 nM.
Take `Cc1cc(SCc2nnc(-c3ccc(F)cc3)s2)ccc1OCC(=O)O` [Example 9, 2-(4-(((5-(4-fluorophenyl)-1,3,4-thiadiazol-2-yl)methyl)thio)-2-methylphenoxy)acetic acid]: the EC50 turned out to be 2440 nM.
In the case of `Cc1cc(SCc2nnc(-c3cc(F)c(F)c(F)c3)s2)ccc1OCC(=O)O` [Example 15, 2-(2-methyl-4-(((5-(3,4,5-trifluorophenyl)-1,3,4-thiadiazol-2-yl)methyl)thio)phenoxy)acetic acid] it was 4010 nM; in that of `Cc1cc(SCc2nnc(-c3ccc(C(F)(F)F)cc3)s2)ccc1OC(C)(C)C(=O)O` [Example 3, 2-methyl-2-(2-methyl-4-(((5-(4-(trifluoromethyl)phenyl)-1,3,4-thiadiazol-2-yl)methyl)thio)phenoxy)propanoic acid], 374 nM.
In the case of `Cc1cc(SCc2nnc(-c3ccc(OC(F)(F)F)cc3)s2)ccc1OC(C)(C)C(=O)O` [Example 27, 2-methyl-2-(2-methyl-4-(((5-(4-(trifluoromethoxy)phenyl)-1,3,4-thiadiazol-2-yl)methyl)thio)phenoxy)propanoic acid] it was 595 nM; in that of `Cc1cc(SCc2nnc(-c3ccc(F)c(F)c3)s2)ccc1OC(C)C(=O)O` (centres unmarked) [Example 13, 2-(4-(((5-(3,4-difluorophenyl)-1,3,4-thiadiazol-2-yl)methyl)thio)-2-methylphenoxy)propanoic acid], 6160 nM; in that of `Cc1cc(SCc2nnc(-c3ccc(OC(F)(F)F)cc3)s2)ccc1OCC(=O)O` [Example 25, 2-(2-methyl-4-(((5-(4-(trifluoromethoxy)phenyl)-1,3,4-thiadiazol-2-yl)methyl)thio)phenoxy)acetic acid], 42 nM.

The record behind these values is patent US20250197363A1, “THIADIAZOLE COMPOUND, AND PHARMACEUTICAL COMPOSITION FOR PREVENTING OR TREATING INFLAMMATORY DISEASES, INCLUDING SAME” (Cureverse Incorporated, priority 2022, published 2025).
